Results published in patent US9605004B2, “Chemical compounds” (SYNGENTA LIMITED, priority 2013, dated 2017).

Legend:
[1] = system: a variety of test species; test: Post-emergence herbicidal activity (Example 8b, Table 3); assay type: in vivo; settings: application post-emergence, rate 1000 g/ha, evaluated after 13 days, scale 0-5; for Herbicidal damage score, ABUTH: Abutilon theophrasti; for Herbicidal damage score, ALOMY: Alopecurus myosuroides; for Herbicidal damage score, AMARE: Amaranthus retroflexus; for Herbicidal damage score, ECHCG: Echinochloa crus-galli; for Herbicidal damage score, SETFA: Setaria faberi; for Herbicidal damage score, ZEAMX: Zea mays
Procedure: (§1) Seeds of a variety of test species were sown in standard soil in pots. After 8 days cultivation (post-emergence) under controlled conditions in a glasshouse (at 24/16° C., day/night; 14 hours light; 65% humidity), the plants were sprayed with an aqueous spray solution derived from the formulation of the technical active ingredient in acetone/water (50:50) solution containing 0.5% Tween 20 (polyoxyethelyene sorbitan monolaurate, CAS RN 9005-64-5). The test plants were then grown in a glasshouse under controlled conditions (at 24/16° C., day/night; 14 hours light; 65% humidity) and watered twice daily. After 13 days, the test was evaluated (5=total damage to plant; 0=no damage to plant).

[2] = system: a variety of test species; test: Pre-emergence herbicidal activity (Example 8a, Table 2); assay type: in vivo; set-up: key: 0 = no damage to plant, 5 = total damage to plant; settings: application pre-emergence, rate 1000 g/ha, evaluated after 13 days
Procedure: as §1, with “After” for “After 8 days”, “for one day (pre-emergence)” for “(post-emergence)”

SMILES | Herbicidal damage score, ABUTH [1] | Herbicidal damage score, ALOMY [1] | Herbicidal damage score, AMARE [1] | Herbicidal damage score, ECHCG [1] | Herbicidal damage score, SETFA [1] | Herbicidal damage score, ZEAMX [1] | Pre-emergence herbicidal activity, damage score ABUTH [2] | Pre-emergence herbicidal activity, damage score ALOMY [2] | Pre-emergence herbicidal activity, damage score AMARE [2] | Pre-emergence herbicidal activity, damage score ECHCG [2] | Pre-emergence herbicidal activity, damage score SETFA [2] | Pre-emergence herbicidal activity, damage score ZEAMX [2]
CCOC(c1cc(N2C(=O)C(Cl)=C(C)C2O)nn1C)C(C)(C)C (mixture of isomers) [Compound B34] | 5 | 3 | 2 | 3 | 3 | 0 | 4 | 2 | 2 | 3 | 1 | 1
CC1=C(Cl)C(=O)N(c2cc(C(F)C(C)(C)C)n(C)n2)C1O (mixture of isomers) [Compound B37] | 4 | 5 | 5 | 5 | 5 | 4 | 4 | 3 | 5 | 3 | 4 | 3
CC1=C(Cl)C(=O)N(c2cc(C(C)(F)C(C)(C)C)n(C)n2)C1O (mixture of isomers) [Compound B40] | 5 | 4 | 5 | 5 | 5 | 1 | 5 | 1 | 3 | 2 | 3 | 0
CC1=C(Cl)C(=O)N(c2cc(C(C)c3ccccc3)n(C)n2)C1O (mixture of isomers) [Compound B41] | 5 | 5 | 4 | 5 | 5 | 2 | 4 | 3 | 2 | 4 | 4 | 2
CC1=C(Cl)C(=O)N(c2cc([S+](C)[O-])n(C)n2)C1O (mixture of isomers) [Compound B46] | 5 | 4 | 5 | 5 | 5 | 4 | 5 | 3 | 5 | 4 | 4 | 1
CCC1CCn2nc(N3C(=O)C(Cl)=C(C)C3O)cc21 (mixture of isomers) [Compound C10] | 5 | 4 | 5 | 5 | 5 | 4 | 4 | 4 | 5 | 4 | 5 | 2
CC1=C(Cl)C(=O)N(c2cc3n(n2)CCC3C)C1O (mixture of isomers) [Compound G1] | 5 | 5 | 5 | 5 | 5 | 5 | 5 | 4 | 5 | 5 | 4 | 3
CCC1CCCn2nc(N3C(=O)C(Cl)=C(C)C3O)cc21 (mixture of isomers) [Compound G5] | 5 | 4 | 5 | 5 | 5 | 5 | 5 | 3 | 5 | 5 | 4 | 1
CC1=C(Cl)C(=O)N(c2cc3n(n2)CCC3C)C1O (mixture of isomers) [Compound G6] | 5 | 5 | 5 | 5 | 5 | 5 | 5 | 4 | 5 | 5 | 4 | 3
CCC1CCCn2nc(N3C(=O)C(Cl)=C(C)C3O)cc21 (mixture of isomers) [Compound G7] | 5 | 4 | 5 | 5 | 5 | 5 | 5 | 3 | 5 | 5 | 4 | 1
CC1=C(Cl)C(=O)N(c2cc3n(n2)CC[S+]([O-])C3(C)C)C1O (mixture of isomers) [Compound G12] | 4 | 3 | 4 | 4 | 3 | 1 | 4 | 3 | 4 | 4 | 3 | 3
CC1=C(Br)C(=O)N(c2cc3n(n2)CC[S+]([O-])C3(C)C)C1O (mixture of isomers) [Compound M5] | 4 | 2 | 2 | 2 | 1 | 0 | 2 | 1 | 2 | 2 | 1 | 1
